# Data published in ChEMBL document CHEMBL5729275 (2022).
# Assay: RSV-A Assay : Hep-2 cells, (originally derived from tumors grown in irradiated-cortisonised weanling rats that had been injected with epidermoid carcinoma tissue from a person's larynx, but later found to be indistinguishable from HeLa cells by PCR DNA analysis), were used for the culturing of genotype A, “Long” strain RSV. Flasks were inoculated with RSV and viral stocks were collected once cytopathic effect (CPE) was greater than 90%. Viral stocks in 25% sucrose media were snap frozen using liquid nitrogen to increase viral stability. Viral stock titers were quantified by tissue culture infectious dose 50% (TCID50) using 8,000 cells per well and 3-fold viral dilutions across a 96-well plate, cultured for 4 days. Viral stock titers were also quantified by a plaque forming unit assay, as described elsewhere.Following extensive parameter testing, the final assay is run as follows: Hep-2 cells are seeded into the inner 60 wells of a 96-well plate at 8,000 cells per well in a volume of 50 μL using Growth Media (DMEM without phenol red, 1% L-Glut, 1% Penn/Strep, 1% nonessential amino acids, 10% heat-inactivated FBS). 2-fold serial dilutions of control and test compounds are added to the wells in duplicate in a total volume of 25 μL. Viral stock is then added to the wells at a multiplicity of infection (MOI) of 0.1 in a volume of 25 μL, bringing the total volume of each well to 100 μL. The MOI is calculated using the PFU/mL, or TCID50 if unavailable. Each 96-well plate has a control column of 6 wells with cells and virus but no compound (negative control, max CPE), a column with cells but no compound or virus (positive control, minimum CPE), and a column with no cells or virus or compound (background plate/reagent control). The control wells with cells but no virus are given an additional […], of growth media containing an equal quantity of sucrose as those wells receiving the viral stock in order to keep consistent in media and volume conditions. The outer wells of the plate are filled with 125 μL of moat media (DMEM, 1% Penn/Strep) to act as a thermal and evaporative moat around the test wells. Following a 5-day incubation period, the plates are read using ATPlite (50 uL added per well), which quantifies the amount of ATP (a measure of cell health) present in each well. Assay plates are read using the Envision luminometer.
row,Structure (SMILES),EC50
1,Cc1ccc2cc(C(=O)NC[C@](O)(c3cc4c(c(-c5ccc(F)cc5)n3)OC[C@@]4(N)C(F)(F)F)C3CC3)cc(OC3CC3)c2n1,< 0.2 µM
2,N[C@@]1(C(F)(F)F)COc2c1cc([C@@](O)(CNC(=O)c1cc(OC3CC3)c3[nH]c(=O)ccc3c1)C1CC1)nc2-c1ccc(F)cc1,> 0.2 µM
3,N[C@@]1(C(F)(F)F)COc2c1cc([C@@](O)(CNC(=O)c1cc(OC3CC3)c3nc(Cl)ccc3c1)C1CC1)nc2-c1ccc(F)cc1,< 0.2 µM
4,N[C@@]1(C(F)(F)F)COc2c1cc([C@@](O)(CNC(=O)c1cc(OC3CC3)c3c(ccc[n+]3[O-])c1)C1CC1)nc2-c1ccc(F)cc1,> 0.2 µM
5,Cn1cc2cc(C(=O)NC[C@](O)(c3cc4c(c(-c5ccc(F)cc5)n3)OC[C@@]4(N)C(F)(F)F)C3CC3)cc(OC3CC3)c2n1,< 0.2 µM
6,Cn1cc2cc(C(=O)NC[C@](O)(c3cc4c(c(-c5ccc(F)cc5)n3)OC[C@@]4(N)C(F)(F)F)C3CC3)cc(F)c2n1,< 0.2 µM
